Measured values reported in patent publication US20220024921A1, “1,3,4-OXADIAZOLONE COMPOUND AND PHARMACEUTICAL” (NIPPON SHINYAKU CO., LTD., priority 2018, published 2022).
Counter-ions that a name gives are not always drawn.

Legend:
[1] = target: T1, PIM3 serine/threonine kinase (Homo sapiens, UniProt Q86V86); assay: PIM3 serine/threonine kinase inhibitory effect; assay type: biochemical; settings: PIM3 serine/threonine kinase activity; ATP 10 μM; 30° C., 30 minutes
T1 construct: purchased Carna Bioscience, Inc
Protocol: (§1) Each test substance was prepared to 10 mM with dimethylsulfoxide (DMSO), and further diluted with DMSO so as to have concentrations of 1000, 300, 100, 30, 10, 3, 1, 0.3, 0.1, 0.03, 0.01, and 0.001 μM. Moreover, each dilution was further diluted 33.3-fold with an assay buffer to prepare a test substance solution. The composition of the assay buffer was 50 mM HEPES (pH 7.0), 0.02% NaN3, 0.01% Bovine Serum Albumin, 0.1 mM Orthovanadate, 1 mM Dithiothreitol, and 5 mM MgCl2.
(§2) 5 μL of each test substance solution was added to 384-well plates (n=2), and then 2.5 μL of a substrate solution (substrate 3-biotin (Cisbio Bioassays SAS), final concentration in the reaction solution: 0.5 μM) and 2.5 μL of an ATP solution (in the cases of PIM1, 2, 3, the final concentrations in the reaction solutions were 40, 2, and 10 μM, respectively) were added, 5 μL of each of PIM1, 2, 3 serine/threonine kinase solutions (Carna Bioscience, Inc., the final concentrations in the reaction solutions were 0.15, 1.6, and 0.25 μg/ml, respectively) was finally added, and the mixture was reacted at 30° C. for 30 minutes. The test substance concentrations in the reaction solutions are 10000, 3000, 1000, 300, 100, 30, 10, 3, 1, 0.3, 0.1, and 0.01 nM.
(§3) Thereafter, 15 μL of each detection solution (62.5 nM Streptavidin-XL665 (Cisbio Bioassays SAS), […] STK antibody-Cryptate (Cisbio Bioassays SAS), 50 mM HEPES (pH 7.0), 0.8 M KF, 0.1% Bovine Serum Albumin, 20 mM ethylenediaminetetraacetic acid) was added to each well. After stirring, the mixture was reacted at 30° C. for 1 hour. Absorbance (OD620, OD665) at 620 and 665 nm was measured with a microplate reader (SpectraMax M5e, Molecular Devices, LLC).
(§4) Non-linear regression analysis was performed by an SAS system (SAS Institute Inc.) using the ratio (OD665/OD620) of the measured absorbance to calculate a test substance concentration (IC50) that inhibits PIM1 serine/threonine kinase activity by 50%.
(§5) For the compounds with the following Example numbers, in addition to the above PIM1 serine/threonine kinase activity (IC50), test substance concentrations (IC50) that inhibit PIM2 serine/threonine kinase activity and PIM3 serine/threonine kinase activity by 50% were calculated.

[2] = target: T2, PIM2 serine/threonine kinase (Homo sapiens, UniProt Q9P1W9); assay: PIM2 serine/threonine kinase inhibitory effect; assay type: biochemical; settings: PIM2 serine/threonine kinase activity; ATP 2 μM; 30° C., 30 minutes
T2 construct: purchased Carna Bioscience, Inc
T2 sequence (Q9P1W9 whole entry): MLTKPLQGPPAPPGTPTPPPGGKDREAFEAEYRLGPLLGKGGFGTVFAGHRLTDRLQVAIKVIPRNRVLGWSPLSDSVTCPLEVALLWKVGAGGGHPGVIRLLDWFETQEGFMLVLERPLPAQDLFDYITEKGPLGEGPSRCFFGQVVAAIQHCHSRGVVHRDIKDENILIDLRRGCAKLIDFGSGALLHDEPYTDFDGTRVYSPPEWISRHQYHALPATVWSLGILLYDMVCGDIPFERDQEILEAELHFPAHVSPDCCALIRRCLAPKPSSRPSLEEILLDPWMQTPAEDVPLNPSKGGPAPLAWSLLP
Protocol: as §1, §2, §3, §4, §5

[3] = target: T3, PIM1 serine/threonine kinase (Homo sapiens, UniProt P11309); assay: PIM1 serine/threonine kinase inhibitory effect; assay type: biochemical; settings: PIM1 serine/threonine kinase activity; ATP 40 μM; 30° C., 30 minutes
T3 construct: purchased Carna Bioscience, Inc
T3 sequence (P11309 whole entry): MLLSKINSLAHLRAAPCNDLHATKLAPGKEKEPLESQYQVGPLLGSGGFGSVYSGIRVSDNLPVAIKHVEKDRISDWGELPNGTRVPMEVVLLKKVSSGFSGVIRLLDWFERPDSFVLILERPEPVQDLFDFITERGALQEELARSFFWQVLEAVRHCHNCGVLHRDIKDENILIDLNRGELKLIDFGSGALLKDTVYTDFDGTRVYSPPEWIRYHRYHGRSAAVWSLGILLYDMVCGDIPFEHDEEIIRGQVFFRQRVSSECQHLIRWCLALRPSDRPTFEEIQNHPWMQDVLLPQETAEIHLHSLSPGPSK
In short: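 Recombinant PIM1 (0.15 μg/ml final) with 0.5 μM biotinylated substrate and 40 μM ATP in pH 7.0 HEPES/MgCl2 buffer, 30 min at 30° C. Compound range was 0.01–10000 nM final, n=2. HTRF detection with streptavidin-XL665 and anti-phospho antibody-cryptate, 1 h; IC50 from non-linear regression of the 665/620 ratio.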

[4] = target: PIM1 transgenic cells (Ba/F3) (Homo sapiens, UniProt P11309); assay: Proliferation inhibitory effect on PIM1 transgenic cells; assay type: cell-based, mouse; settings: proliferation inhibition, 72 hours, Cell Counting Kit-8, read-out: PIM1 IC50
Chain of PIM1 transgenic cells (Ba/F3) (P11309 whole entry, stated change not applied): as the sequence (P11309 whole entry) above
In short: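 Mouse Ba/F3 pro-B cells were retrovirally transduced with human PIM1 so that their proliferation depends on PIM1. Cells were treated with compound at 1–10000 nM final for 72 h, then read by CCK-8 (OD450−OD650). Inhibition was set against DMSO (0%) and no-cell blank (100%), and IC50 was obtained by two-parameter logistic regression.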

SMILES | IC50 [1] | IC50 [2] | IC50 [3] | GI50 [4]
N[C@H]1CC[C@H](CNc2cc(-c3n[nH]c(=O)o3)cc(F)c2C(F)(F)F)CC1 [Example 69, 5-[3-({[(1r,4r)-4-aminocyclohexyl]methyl}amino)-5-fluoro-4-(trifluoromethyl)phenyl]-1,3,4-oxadiazol-2(3H)-one hydrochloride] | 4 nM | 7 nM | 1.1 nM | 37 nM
CC(Nc1cc(-c2n[nH]c(=O)o2)ccc1C(F)(F)F)[C@H]1CC[C@H](N)CC1 (stereo partly shown) [Example 63, 5-[3-({1-[(1r,4r)-4-aminocyclohexyl]ethyl}amino)-4-(trifluoromethyl)phenyl]-1,3,4-oxadiazol-2(3H)-one hydrochloride] | 5 nM | 13 nM | 0.7 nM | 28 nM
N[C@H]1CC[C@H](CNc2cc(-c3n[nH]c(=O)o3)ccc2Cl)CC1 [Example 61, 5-[3-({[(1r,4r)-4-aminocyclohexyl]methyl}amino)-4-chlorophenyl]-1,3,4-oxadiazol-2(3H)-one hydrochloride] | 5 nM | 19 nM | 1 nM | 44 nM
O=c1[nH]nc(-c2ccc(C(F)(F)F)c(-c3cncc(N4CCNCC4)c3)c2)o1 [Example 25, 5-{3-[5-(piperazin-1-yl)pyridin-3-yl]-4-(trifluoromethyl)phenyl}-1,3,4-oxadiazol-2(3H)-one dihydrochloride] | 740 nM | 770 nM | 180 nM | 
CC(Nc1cc(-c2n[nH]c(=O)o2)ccc1C(F)(F)F)C1CCNCC1 (stereo not shown) [Example 52, 5-[3-{[1-(piperidin-4-yl)ethyl]amino}-4-(trifluoromethyl)phenyl]-1,3,4-oxadiazol-2(3H)-one hydrochloride] | 12 nM | 19 nM | 4.2 nM | 59 nM
NCc1cccc(-c2cc(-c3n[nH]c(=O)o3)ccc2Cl)c1 [Example 18, 5-[3′-(aminomethyl)-6-chloro[1,1′-biphenyl]-3-yl]-1,3,4-oxadiazol-2(3H)-one hydrochloride] | 340 nM | 220 nM | 64 nM | 
N[C@H]1CC[C@H](CNc2cc(-c3n[nH]c(=O)o3)ccc2C(F)(F)F)CC1 [Example 55, 5-[3-({[(1r,4r)-4-aminocyclohexyl]methyl}amino)-4-(trifluoromethyl)phenyl]-1,3,4-oxadiazol-2(3H)-one hydrochloride] | 5 nM | 14 nM | 0.7 nM | 34 nM
N[C@H]1CC[C@H](CNc2cc(-c3n[nH]c(=O)o3)ccc2Br)CC1 [Example 68, 5-[3-({[(1r,4r)-4-aminocyclohexyl]methyl}amino)-4-bromophenyl]-1,3,4-oxadiazol-2(3H)-one hydrochloride] | 5 nM | 18 nM | 1.4 nM | 61 nM
N[C@H]1CC[C@H](CNc2cc(-c3n[nH]c(=O)o3)ccc2OC(F)(F)F)CC1 [Example 66, 5-[3-({[(1r,4r)-4-aminocyclohexyl]methyl}amino)-4-(trifluoromethoxy)phenyl]-1,3,4-oxadiazol-2(3H)-one hydrochloride] | 18 nM | 90 nM | 4.7 nM | 190 nM
C[C@@H](Nc1cc(-c2n[nH]c(=O)o2)ccc1C(F)(F)F)C1CCNCC1 [Example 59, 5-[3-{[(1R)-1-(piperidin-4-yl)ethyl]amino}-4-(trifluoromethyl)phenyl]-1,3,4-oxadiazol-2(3H)-one hydrochloride] | 85 nM | 98 nM | 16 nM | 320 nM
N[C@H]1CC[C@H](Nc2cc(-c3n[nH]c(=O)o3)ccc2C(F)(F)F)CC1 [Example 34, 5-[3-{[(1r,4r)-4-aminocyclohexyl]amino}-4-(trifluoromethyl)phenyl]-1,3,4-oxadiazol-2(3H)-one hydrochloride] | 16 nM | 25 nM | 4 nM | 910 nM
NC[C@H]1CC[C@H](Nc2cc(-c3n[nH]c(=O)o3)ccc2C(F)(F)F)CC1 [Example 37, 5-[3-{[(1r,4r)-4-(aminomethyl)cyclohexyl]amino}-4-(trifluoromethyl)phenyl]-1,3,4-oxadiazol-2(3H)-one hydrochloride] | 10 nM | 11 nM | 2 nM | 280 nM
